How the values were obtained:
Test in all cases: relative viability (nuclei count vs DMSO), 5 days (fraction); higher = more cells survive
XMD8-85 + Dasatinib = compound: CN1CCN(CC1)C2=CC(=C(C=C2)NC3=NC=C4C(=N3)N(C5=CC=CC=C5C(=O)N4C)C)OC [XMD8-85] + Cc1nc(Nc2ncc(C(=O)Nc3c(C)cccc3Cl)s2)cc(N2CCN(CCO)CC2)n1 [Dasatinib] (partner 0.075 µM)
Method in brief: (§1)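 Lung cancer cell lines were pin-tool dosed in 1536-well plates on the day after seeding, with either a lone drug or a fixed anchor-drug dose plus five library-drug doses (not always all listed) in √10 steps. Nuclei were counted on 4× images after 5 days. Relative viability is the ratio of treated-well to vehicle-well nuclei counts, with each value a median of duplicate plates.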

4EGI-1 + Lapatinib = compound: O=C(O)C(Cc1ccccc1[N+](=O)[O-])=NNc1nc(-c2ccc(Cl)c(Cl)c2)cs1 (mixture of isomers) [4EGI-1] + CS(=O)(=O)CCNCc1ccc(-c2ccc3ncnc(Nc4ccc(OCc5cccc(F)c5)c(Cl)c4)c3c2)o1 [Lapatinib] (partner 2 µM)
Method in brief: as §1

XMD8-85 + Pemetrexed = compound: CN1CCN(CC1)C2=CC(=C(C=C2)NC3=NC=C4C(=N3)N(C5=CC=CC=C5C(=O)N4C)C)OC [XMD8-85] + Nc1nc2[nH]cc(CCc3ccc(C(=O)N[C@@H](CCC(=O)O)C(=O)O)cc3)c2c(=O)[nH]1 [Pemetrexed] (partner 0.2 µM)
Method in brief: as §1

XMD8-85 + Linsitinib = compound: CN1CCN(CC1)C2=CC(=C(C=C2)NC3=NC=C4C(=N3)N(C5=CC=CC=C5C(=O)N4C)C)OC [XMD8-85] + C[C@]1(O)C[C@@H](c2nc(-c3ccc4ccc(-c5ccccc5)nc4c3)c3c(N)nccn32)C1 [Linsitinib] (partner 1 µM)
Method in brief: as §1

| Cell Line | relative viability (XMD8-85 + Dasatinib; first compound 0.08 µM) | relative viability (XMD8-85 + Dasatinib; first compound 0.253 µM) | relative viability (XMD8-85 + Dasatinib; first compound 0.8 µM) | relative viability (XMD8-85 + Dasatinib; first compound 2.53 µM) | relative viability (XMD8-85 + Dasatinib; first compound 8 µM) | relative viability (4EGI-1 + Lapatinib; first compound 0.5 µM) | relative viability (4EGI-1 + Lapatinib; first compound 1.581 µM) | relative viability (4EGI-1 + Lapatinib; first compound 5 µM) | relative viability (4EGI-1 + Lapatinib; first compound 15.81 µM) | relative viability (4EGI-1 + Lapatinib; first compound 50 µM) | relative viability (XMD8-85 + Pemetrexed; first compound 0.08 µM) | relative viability (XMD8-85 + Pemetrexed; first compound 0.253 µM) | relative viability (XMD8-85 + Pemetrexed; first compound 0.8 µM) | relative viability (XMD8-85 + Pemetrexed; first compound 2.53 µM) | relative viability (XMD8-85 + Pemetrexed; first compound 8 µM) | relative viability (XMD8-85 + Linsitinib; first compound 0.08 µM) | relative viability (XMD8-85 + Linsitinib; first compound 0.253 µM) | relative viability (XMD8-85 + Linsitinib; first compound 0.8 µM) | relative viability (XMD8-85 + Linsitinib; first compound 2.53 µM) | relative viability (XMD8-85 + Linsitinib; first compound 8 µM) |
| --- | --- | --- | --- | --- | --- | --- | --- | --- | --- | --- | --- | --- | --- | --- | --- | --- | --- | --- | --- | --- |
| BEN | 0.322 | 0.332 | 0.38 | 0.27 | 0.301 | 0.786 | 0.854 | 0.734 | 0.573 | 0.612 | 0.811 | 0.771 | 0.696 | 0.735 | 0.474 | 0.692 | 0.923 | 0.802 | 0.683 | 0.584 |
| SK-MES-1 | 0.296 | 0.366 | 0.44 |  | 0.255 | 0.51 | 0.419 | 0.479 | 0.459 | 0.395 | 0.857 | 1.08 | 1 | 0.9 | 0.44 | 1.09 | 0.942 | 0.95 | 1 | 0.964 |
| NCI-H1623 | 0.533 | 0.571 | 0.533 | 0.56 | 0.444 |  |  |  |  |  |  |  |  |  |  |  |  |  |  |  |
| IA-LM |  |  |  |  |  | 0.886 | 0.589 | 0.581 | 0.109 | 0.0728 |  |  |  |  |  | 0.385 | 0.563 | 0.562 | 0.393 | 0.166 |
| CAL-12T | 0.374 | 0.363 | 0.431 | 0.447 | 0.225 |  |  | 0.634 | 0.701 | 0.529 | 0.956 | 1.15 |  | 0.862 | 0.681 | 0.677 | 0.656 | 0.802 | 0.808 | 0.595 |
| ABC-1 | 0.515 |  | 0.503 | 0.673 | 0.408 | 1.06 | 1.46 | 1.24 | 1.17 | 1.16 |  |  |  |  |  | 0.825 | 0.777 | 0.755 | 0.681 | 0.406 |
| LCLC-97TM1 |  | 0.813 | 0.856 | 1.01 | 0.87 | 1.28 |  | 1.16 | 0.801 | 0.274 | 0.153 | 0.17 | 0.211 | 0.181 | 0.189 | 0.168 | 0.218 | 0.176 | 0.199 | 0.232 |
| PC-14 | 0.229 | 0.271 | 0.275 | 0.249 | 0.115 | 0.355 | 0.353 | 0.371 |  | 0.296 | 0.114 | 0.144 | 0.126 | 0.116 | 0.101 | 1.06 | 0.849 | 0.914 | 0.843 | 0.86 |
| NCI-H23 | 0.719 | 0.853 | 0.885 | 0.751 | 0.528 | 1.24 |  | 1.09 | 1.13 | 0.43 | 0.546 | 0.677 | 0.607 |  | 0.4 | 0.545 | 0.611 | 0.547 | 0.513 |  |
| NCI-H727 | 0.295 | 0.416 | 0.442 | 0.344 | 0.353 | 0.96 | 0.712 | 0.96 | 0.724 | 0.391 |  |  |  |  |  | 0.259 | 0.314 | 0.308 | 0.231 | 0.215 |
| A549 |  |  |  |  |  | 1.15 | 1.04 | 1.09 | 0.77 | 0.0791 |  |  |  |  |  | 0.602 | 0.476 | 0.579 | 0.592 | 0.594 |
| COR-L 105 | 0.336 | 0.364 | 0.292 | 0.268 | 0.171 | 0.421 | 0.38 | 0.371 | 0.343 | 0.293 | 1.01 | 1.16 | 1.21 | 0.816 | 0.58 | 0.913 | 1.02 | 0.779 | 0.902 | 0.372 |
| NCI-H650 | 0.446 | 0.51 | 0.437 | 0.418 | 0.304 | 1.28 |  | 1.12 | 0.918 | 0.652 | 0.944 | 0.921 | 1.04 | 0.852 | 0.717 | 0.925 | 0.74 | 0.811 | 0.826 | 0.371 |
| NCI-H1975 | 0.317 | 0.345 | 0.384 | 0.38 | 0.236 | 1.05 | 0.916 | 0.916 | 0.93 | 0.287 | 0.257 | 0.286 | 0.305 | 0.282 | 0.227 | 1.01 | 0.908 | 0.981 | 1.03 | 0.498 |
| NCI-H2023 | 0.426 | 0.521 | 0.586 | 0.619 | 0.314 | 1.37 |  | 0.964 | 0.217 | 0.0883 | 0.189 | 0.223 | 0.326 | 0.255 | 0.165 | 0.564 | 0.811 | 0.76 | 0.657 | 0.34 |
| EMC-BAC-2 | 0.309 | 0.341 | 0.337 | 0.347 | 0.39 | 1.06 | 0.744 | 0.89 | 0.913 | 0.88 | 0.391 | 0.423 | 0.45 | 0.411 | 0.376 | 0.851 | 0.803 | 0.793 | 0.797 | 0.813 |

From the supplement of paper PMC10307832
